These are literature values, as cited in patent US10137245B2 (priority 2010, dated 2018).

The test system of data set [1] is healthy human volunteers. The note with it: intrathecal morphine group; extremely low plasma levels; Bailey and colleagues.
The subject of data set [2] is human surgical patients. As to conditions: propofol concentration, Shafer et al 1988.

For the compound `CN1CC[C@]23c4c5ccc(O)c4O[C@H]2[C@@H](O)C=C[C@H]3[C@H]1C5` [morphine], in data set [1], the “Effect on HRV” value was “substantial reduction”. For `CC(C)c1cccc(C(C)C)c1O` [propofol, 2,6-diisopropylphenol], in data set [2], the EC50 for awakening was 1.07 ± 0.13 µg/mL and the EC50 for orientation was 0.95 ± 0.19 µg/mL.
